These results are taken from patent US20120225093A1, “Abrogating HIV-1 Infection via Drug-Induced Reactivation of Apoptosis” (UNIVERSITY OF MEDICINE AND DENTISTRY OF NEW JERSEY, priority 2010, published 2012).

In one test the test system is HIV p24. Description: p24 expression from pNL4-3-LucE- molecular clone in 293T cells. Type of test: cell-based, HIV-1. The following applies: 293T cell extract; 12 hr post-transfection. As to the method:
FIGS. 3A-D are a set of diagrams and photographs showing drug effects on luciferase expression from an HIV-1 molecular clone. A. Comparison of drug effects on luciferase expression from the pNL4-3-LucE- molecular clone in 293T cells. The molecular clone pNL4-3-LucE- and pCMV-Ren were transfected into 293T cells. Drugs were added where indicated at the following concentrations: P2 (30 μM), CPX (30 μM), DEF (250 μM), or DFOX (15 μM). Dual luciferase assays were conducted at 12 hr post-transfection. Firefly (FF) luciferase expression was normalized to Renilla luciferase (Ren) from pCMV-Ren (mean of 2 experiments in duplicate, ±SD). B. Expression in Jurkat cells was assayed essentially as in panel A. C. Firefly and Renilla luciferase RNA expression was analyzed in 293T cells treated as in panel A by RPA using 32P-[UTP] labeled antisense RNA probes corresponding to the C-termini of the FF and Ren luciferase mRNAs. D. Comparison of drug effects on p24 expression from the pNL4-3-LucE- molecular clone in 293T cells. Drugs were added where indicated to the same concentrations as in A. p24 levels were determined in cell extract at 12 hr post-transfection.
(§1) p24 core antigen in the supernatant was quantified by ELISA (Retrotek HIV-1 p24™; ZeptoMetrix Corp.; Buffalo, N.Y.). HIV-1 RNA copy number in the supernatant was determined with a PCR-based and FDA-approved assay (Amplicor HIV-1 Monitor™; Roche Diagnostics Corp.; Indianapolis, Ind.). IFN-γ and IL-10 in the supernatant were determined by cytometric bead array (Human Th1/Th2 Cytokine Kit II™; BD Biosciences Pharmingen, San Jose, Calif.).

In another test the test system is HIV-1. As to the kind of experiment: Small trial of virological response to DEF in HIV-infected volunteers. The test is classed as in vivo, human.
The test system of a further test is HIV-infected PBMCs. As to the kind of experiment: TUNEL apoptosis in HIV-1 exposed PBMC cultures. Type of test: cell-based, human. The following applies: CPX 30 μM. As to the method: (§2) Uninfected PBMCs were co-incubated with infected PBMC stock in 24-well microplates at 2 ml/well Medium B, at a 10:1 ratio of uninfected-to-infected cells, and a total cell number of 1×10^6. Cultures were maintained and assayed for 6 consecutive days. CPX or Agent P2 was added at the time of inoculation or 12 hr later. Leaving the cell layer undisturbed, half the medium in each well was replenished every day, with concurrent adjustment of compound concentration. On each day during the 6-day experiments, a set of wells was harvested: the cells were processed for determination of viability and apoptosis, and the cell-free supernatants were stored at −80° C. for p24 and viral RNA measurements. […]
(§3) The potential across the mitochondrial membrane of live cells was determined flow-cytometrically with the lipophilic cationic fluorochrome JC-1 (5,5′,6,6′-tetrachloro-1,1′,3,3′-tetraethylbenzimidazolcarbocyanine iodide) immediately after sample harvest (BD™ Mitoscreen Kit, BD Biosciences; San Diego, Calif.). DNA fragmentation was quantified flow-cytometrically, using a TUNEL (terminal deoxynucleotide transferase dUTP nick end-labeling) assay (APO-BRDU™; Phoenix Flow Systems; San Diego, Calif.) and a dual-color assay for annexin V binding and 7-AAD exclusion (Annexin V-PE 7-AAD Apoptosis Detection Kit I™; BD Biosciences Pharmingen, San Jose, Calif.). […]

The subject of a further test is uninfected PBMCs. As to the kind of experiment: TUNEL apoptosis in uninfected PBMC cultures. The test is classed as cell-based, human. The following applies: CPX 30 μM. The procedure: as §2, §3
The test system of the next test is IFN-γ. Description: IFN-γ secretion by PBMC cultures (cytometric bead array). The test is classed as cell-based, human. Conditions: CPX added at inoculation or 12 hr later; Phase I. The procedure: Uninfected PBMCs were co-incubated with infected PBMC stock in 24-well microplates at 2 ml/well Medium B, at a 10:1 ratio of uninfected-to-infected cells, and a total cell number of 1×10^6. Cultures were maintained and assayed for 6 consecutive days. CPX or Agent P2 was added at the time of inoculation or 12 hr later. Leaving the cell layer undisturbed, half the medium in each well was replenished every day, with concurrent adjustment of compound concentration. On each day during the 6-day experiments, a set of wells was harvested: the cells were processed for determination of viability and apoptosis, and the cell-free supernatants were stored at −80° C. for p24 and viral RNA measurements. Experiments were performed at least in duplicate and repeated at least twice.
as §1
To further assess the cellular effects of CPX, the secretion of interferon (IFN)-γ and interleukin (IL)-10 was measured. […]

`Cc1c(O)c(=O)ccn1C` [DEF, 3-hydroxy-1,2-dimethylpyridin-4(1H)-one]: in the test with HIV p24, the “inhibition of HIV p24 expression from the molecular clone” value is around 60%. Besides, the “virological response after drug withdrawal” value in the test with HIV-1 was “persistent off-medicine antiretroviral activity even eight weeks after drug withdrawal”.
As to `Cc1cc(C2CCCCC2)n(O)c(=O)c1` [CPX, 6-cyclohexyl-1-hydroxy-4-methylpyridin-2[1H]-one], the “inhibition of HIV p24 expression from the molecular clone” value with HIV p24 was around 60%. For the same molecule, the “apoptotic (TUNEL-positive) cells” value in the test with HIV-infected PBMCs (144 hr after inoculation) was 71.8% (±8.8%); with uninfected PBMCs (144 hr) it was 24.1% (±3.2%). Besides, the “increase in proportion of TUNEL-positive PBMCs” value in the test with HIV-infected PBMCs (HIV-infected cultures) is around 10 fold. Moreover, the “change in proportion of TUNEL-positive PBMCs” value with uninfected PBMCs (uninfected cultures) is listed as “roughly doubled”. The “HIV-induced rise of IFN-γ” value in the test on IFN-γ was “abolished the HIV-induced cytokine boost”.
